# Legend:
# Procathepsin L [1] = biological target: T1, Procathepsin L (Homo sapiens, UniProt P07711); assay: Inhibition of human cathepsin L
# Target sequence in this assay (P07711 whole entry): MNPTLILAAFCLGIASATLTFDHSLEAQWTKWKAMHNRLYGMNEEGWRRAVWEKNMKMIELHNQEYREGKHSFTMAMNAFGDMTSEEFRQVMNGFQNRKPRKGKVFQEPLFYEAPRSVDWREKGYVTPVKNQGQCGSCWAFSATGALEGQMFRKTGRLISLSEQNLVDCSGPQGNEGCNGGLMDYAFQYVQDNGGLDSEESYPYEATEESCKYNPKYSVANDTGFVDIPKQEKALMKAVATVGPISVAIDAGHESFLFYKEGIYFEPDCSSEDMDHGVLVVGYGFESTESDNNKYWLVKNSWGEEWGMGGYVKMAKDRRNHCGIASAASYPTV
# Cathepsin B [2] = biological target: T2, Cathepsin B (Homo sapiens, UniProt P07858); assay: Inhibition of human cathepsin B using Z-Phe-Arg-AMC fluorogenic peptide as substrate preincubated for 2 mins followed by substrate addition and measured for 5 mins by fluorescence assay
# Cathepsin K = biological target: T3, Cathepsin K (Homo sapiens, UniProt P43235); assay: Inhibition of recombinant human cathepsin K using Z-Leu-Arg-AMC as substrate measured after 20 mins
# T3 sequence (P43235 whole entry): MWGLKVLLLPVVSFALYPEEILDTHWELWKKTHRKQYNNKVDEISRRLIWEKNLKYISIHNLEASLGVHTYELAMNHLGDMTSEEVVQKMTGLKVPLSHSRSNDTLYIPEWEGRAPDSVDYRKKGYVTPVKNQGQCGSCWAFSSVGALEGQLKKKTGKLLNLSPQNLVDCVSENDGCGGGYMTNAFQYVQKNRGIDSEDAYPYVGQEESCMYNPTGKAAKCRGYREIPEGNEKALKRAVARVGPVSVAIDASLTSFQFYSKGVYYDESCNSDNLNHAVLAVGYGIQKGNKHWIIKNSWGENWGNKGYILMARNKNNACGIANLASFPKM
# Cathepsin S [3] = biological target: T4, Cathepsin S (Homo sapiens, UniProt P25774); assay: Inhibition of human cathepsin S
# Target sequence in this assay (P25774 whole entry): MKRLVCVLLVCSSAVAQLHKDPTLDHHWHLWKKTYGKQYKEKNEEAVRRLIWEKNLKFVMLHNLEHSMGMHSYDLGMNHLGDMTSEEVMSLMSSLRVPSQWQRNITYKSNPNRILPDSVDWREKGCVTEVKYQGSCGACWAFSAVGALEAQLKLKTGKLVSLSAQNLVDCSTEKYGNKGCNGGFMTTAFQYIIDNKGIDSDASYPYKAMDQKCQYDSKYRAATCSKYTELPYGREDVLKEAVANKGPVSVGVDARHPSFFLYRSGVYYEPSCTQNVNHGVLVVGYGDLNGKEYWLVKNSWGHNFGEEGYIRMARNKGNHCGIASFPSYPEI
# Cathepsin B [4] = biological target: T2, Cathepsin B; assay: Inhibition of human cathepsin B at pH 4.5 using Z-Phe-Arg-AMC fluorogenic peptide as substrate preincubated for 2 mins followed by substrate addition and measured for 5 mins by fluorescence assay
# Cathepsin B [5] = biological target: T2, Cathepsin B; assay: Inhibition of human cathepsin B at pH 6 using Z-Phe-Arg-AMC fluorogenic peptide as substrate preincubated for 2 mins followed by substrate addition and measured for 5 mins by fluorescence assay
# Procathepsin L [6] = biological target: T1, Procathepsin L; assay: Inhibition of human cathepsin L at 10 uM relative to control
# Target sequence in this assay (P07711 114-333 limits assumed): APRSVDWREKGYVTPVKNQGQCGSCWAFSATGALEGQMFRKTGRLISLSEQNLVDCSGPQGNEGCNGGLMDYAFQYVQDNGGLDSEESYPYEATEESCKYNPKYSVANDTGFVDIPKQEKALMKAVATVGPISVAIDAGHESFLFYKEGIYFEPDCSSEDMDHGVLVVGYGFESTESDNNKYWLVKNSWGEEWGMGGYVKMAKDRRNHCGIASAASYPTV
# [7] = biological target: T5, Cathepsin K (Homo sapiens) (UniProt P43235); assay: Inhibition of recombinant human cathepsin K at 10 uM using Z-Leu-Arg-AMC as substrate measured after 20 mins relative to control
# T5 sequence (whole entry): T3 sequence (P43235 whole entry)
# Cathepsin S [8] = biological target: T4, Cathepsin S; assay: Inhibition of human cathepsin S at 10 uM relative to control
# Target sequence in this assay (P25774 115-331 limits assumed): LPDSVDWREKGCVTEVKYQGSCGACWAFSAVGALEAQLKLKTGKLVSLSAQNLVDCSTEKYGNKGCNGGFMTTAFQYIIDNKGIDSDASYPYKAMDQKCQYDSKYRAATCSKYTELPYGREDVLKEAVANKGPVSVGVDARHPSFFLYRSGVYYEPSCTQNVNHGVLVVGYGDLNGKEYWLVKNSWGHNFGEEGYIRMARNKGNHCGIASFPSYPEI
# Homo sapiens [9] = species: Homo sapiens; assay: Selectivity index, ratio of pKi for human cathepsin S to pKi for human cathepsin L
# Homo sapiens [10] = species: Homo sapiens; assay: Selectivity index, ratio of pKi for human cathepsin S to pKi for human cathepsin B using Z-Phe-Arg-AMC fluorogenic peptide as substrate preincubated for 2 mins followed by substrate addition and measured for 5 mins by fluorescence assay; details: time 7.0 min
# [11] = biological target: Cathepsin (S and K) (Homo sapiens) (UniProt P25774+P43235); assay: Selectivity index, ratio of pKi for human cathepsin S to pKi for recombinant human cathepsin K using Z-Leu-Arg-AMC as substrate measured after 20 mins; assay type: protein assay
# Cathepsin B [12] = biological target: T2, Cathepsin B; assay: Inhibition of human cathepsin B at 10 uM using Z-Phe-Arg-AMC fluorogenic peptide as substrate preincubated for 2 mins followed by substrate addition and measured for 5 mins by fluorescence assay relative to control; details: time 7.0 min
# Homo sapiens [13] = species: Homo sapiens; assay: Selectivity index, ratio of pKi for human cathepsin B using Z-Phe-Arg-AMC fluorogenic peptide as substrate preincubated for 2 mins followed by substrate addition and measured for 5 mins by fluorescence assay to pKi for human cathepsin L; details: time 7.0 min
# Chain of Cathepsin (S and K) (Homo sapiens) (P25774 whole entry, looked up, one chain of several): as the sequence (P25774 whole entry) above
Ki (Procathepsin L [1]) [nM],Ki (Cathepsin B [2]) [nM],Ki (Cathepsin K) [nM],Ki (Cathepsin S [3]) [nM],IC50 (Cathepsin B [4]) [nM],IC50 (Cathepsin B [5]) [nM],inhibition (Procathepsin L [6]) [%],inhibition [7] [%],inhibition (Cathepsin S [8]) [%],Ratio pKi (Homo sapiens [9]),Ratio pKi (Homo sapiens [10]),Ratio pKi [11],inhibition (Cathepsin B [12]) [%],Ratio pKi (Homo sapiens [13]),SMILES
0.501,158,2510,158,–,–,–,–,–,–,–,–,–,–,C[C@@H](OCc1ccccc1)[C@@H](C#N)NC(=O)[C@H](Cc1cccc(Br)c1)NC(=O)c1cc(C(C)(C)C)nn1C
50.1,126,> 10000,50.1,–,–,–,–,–,–,–,–,–,–,C[C@@H](OCc1ccccc1)[C@@H](C#N)NC(=O)[C@H](Cc1cccc(Cl)c1)NC(=O)c1cccc(-c2ccccc2)c1
1,5.01,> 10000,12.6,33.1,9.01,–,–,–,–,–,–,–,–,C[C@@H](OCc1ccccc1)[C@@H](C#N)NC(=O)[C@H](Cc1cccc(Cl)c1)NC(=O)c1cccc(-c2cccnc2)c1
200,25.1,> 10000,631,–,–,–,–,–,–,–,–,–,–,C[C@@H](OCc1ccccc1)[C@@H](C#N)NC(=O)[C@H](Cc1cccc(Cl)c1)NS(=O)(=O)c1cccc(-c2ccccc2)c1
20,12.6,5010,31.6,–,–,–,–,–,–,–,–,–,–,C[C@@H](OCc1ccccc1)[C@@H](C#N)NC(=O)[C@H](Cc1cccc(Br)c1)NC(=O)c1ccc(-c2cncnc2)cc1
0.251,39.8,631,79.4,–,–,–,–,–,–,–,–,–,–,C[C@@H](OCc1ccccc1)[C@@H](C#N)NC(=O)[C@H](Cc1cccc(Cl)c1)NS(=O)(=O)c1cccc(Br)c1
> 10000,50.1,> 10000,501,39.4,92.6,55,> 90,–,–,–,–,–,–,C[C@@H](OCc1ccccc1)[C@@H](C#N)NC(=O)[C@H](Cc1cccc(Br)c1)NC(=O)c1ccc(-c2ccccc2)cc1
> 10000,158,> 10000,> 10000,–,–,> 90,51,86,–,–,–,–,–,C[C@@H](OCc1ccccc1)[C@@H](C#N)NC(=O)[C@H](Cc1ccc(Br)cc1)NC(=O)c1ccc(-c2ccccc2)cc1
20,12.6,> 10000,39.8,–,–,–,84,–,–,–,–,–,–,C[C@@H](OCc1ccccc1)[C@@H](C#N)NC(=O)[C@H](Cc1cccc(Br)c1)NC(=O)c1ccc(-c2cccnc2)cc1
7.94,12.6,5010,126,–,–,–,–,–,–,–,–,–,–,C[C@@H](OCc1ccccc1)[C@@H](C#N)NC(=O)[C@H](Cc1cccc(Cl)c1)NC(=O)c1ccc(Br)cc1
0.631,63.1,3980,15.8,–,–,–,–,–,–,–,–,–,–,C[C@@H](OCc1ccccc1)[C@@H](C#N)NC(=O)[C@H](Cc1cccc(Cl)c1)NC(=O)c1cccc(Br)c1
> 10000,> 10000,> 10000,501,–,–,59,> 90,–,> 50,> 50,> 50,> 90,–,C[C@@H](OCc1ccccc1)[C@@H](C#N)NC(=O)[C@H](Cc1cccc(Br)c1)NC(=O)Cc1ccc(-c2ccccc2)cc1
158,200,10000,501,–,–,–,–,–,–,–,–,–,–,C[C@@H](OCc1ccccc1)[C@@H](C#N)NC(=O)[C@H](Cc1cccc(Cl)c1)NS(=O)(=O)c1ccc(-c2ccccc2)cc1
794,50.1,> 10000,158,–,–,–,70,–,–,–,–,–,12,C[C@@H](OCc1ccccc1)[C@@H](C#N)NC(=O)[C@H](Cc1c[nH]c2ccccc12)NC(=O)c1ccc(-c2ccccc2)cc1
20,63.1,> 10000,15.8,–,–,–,82,–,–,–,–,–,–,C[C@@H](OCc1ccccc1)[C@@H](C#N)NC(=O)[C@H](Cc1cccc(Cl)c1)NC(=O)c1cccc(-c2cncnc2)c1
> 10000,31.6,1580,79.4,42.3,57.8,61,–,–,–,–,–,–,–,C[C@@H](OCc1ccccc1)[C@@H](C#N)NC(=O)[C@H](Cc1cccc(Cl)c1)NC(=O)c1ccc(-c2ccccc2)cc1
20,31.6,> 10000,20,–,–,–,–,–,–,–,–,–,–,C[C@@H](OCc1ccccc1)[C@@H](C#N)NC(=O)[C@H](Cc1cccc(Br)c1)NC(=O)c1cccc(-c2cccnc2)c1
15.8,12.6,6310,63.1,–,–,–,–,–,–,–,–,–,–,C[C@@H](OCc1ccccc1)[C@@H](C#N)NC(=O)[C@H](Cc1cccc(Cl)c1)NC(=O)c1ccc(-c2cncnc2)cc1
